Laboratory results reported in US20180289655A1, “Methods and Compositions for the Intravenous Administration of Fumarates for the Treatment of Neurological Diseases” (Biogen MA Inc., priority 2015, published 2018).
“And” between values parts separate entries of the source, which are not always exact repeats. Identical values can stand only once. “Also recorded” adds a separate entry of the source. Counter-ions that a name gives are not always drawn.

Key:
[1] = (^14C)DMF distribution viewed in sagittal section (QWBA); type: in vivo, mice; conditions: 10 and 60 minutes
[2] = MMF exposure in plasma and tissues after DMF PO/IV or MMF IV (LC-MS/MS); type: in vivo, C57BL/6 mice
Method: Aliquots (25 μL) of either plasma or tissue homogenate samples were extracted by protein precipitation with acetonitrile containing 4C13-MMF as the internal standard. For tissue samples, aliquots of homogenization solution (plasma with 12.5 mg/mL of NaF) were added to the tissue samples. The tissue samples were homogenized at 6.5 m/s for 60 seconds on a Fast Prep Tissue Homogenizer prior to protein precipitation. Concentrations of MMF in plasma, brain, jejunum and kidney samples were determined using qualified LC-MS/MS assays in the respective matrices. Data collections and integrations were accomplished using an API 5500 triple quadrupole mass spectrometer with a turbo ion spray interface (AB Sciex, Foster City, Calif.), and Analyst software (version 1.6.1). The peak area ratios of MMF relative to its internal standard were used to construct a standard curve using a quadratic regression with a 1/x^2 weighting. The lower limits of quantitation (LLOQ) were 1 ng/mL for the three tissue assays and 10 ng/mL for the plasma assay, respectively. The performances of the assays were monitored by the precision and accuracy of the standards and quality control samples.
MMF exposure levels were evaluated 10 minutes and 2 hours after dosing, while pharmacodynamic transcriptional responses were analyzed at 2 hours post-dose.
(§1) At the 10-minute time point, 4 animals from each group were sacrificed, with plasma and tissues (brain, jejunum and kidney) collected to determine MMF exposure. Two hours after dosing, the remaining 4 animals were sacrificed, and plasma and tissues were collected. Tissue samples from the 2-hour time point were divided, with half of each sample used for MMF exposure analysis, and half for RNA extraction and qRT-PCR to evaluate the expression of Nrf2 target genes.
MMF exposure levels were evaluated 10 minutes and 2 hours after dosing, while transcriptional pharmacodynamic responses were analyzed at 2 and 6 hours post-dose. A complete blood count (CBC) with differential panel was performed at 10 minutes, 2 hours, and 6 hours post-dose.
(§2) Ten minutes after dosing, 4 animals from each group were sacrificed, and plasma and tissues (brain, kidney, jejunum and spleen) were collected to quantify MMF exposure levels, as well as whole blood to perform CBC. Two hours post-dose, another 4 animals from each group were sacrificed, and plasma, whole blood, and tissues were collected. Tissue samples from the 2-hour time point were split, with half of each sample used for MMF exposure analysis, and half for RNA extraction/qRT-PCR to evaluate the expression of Nrf2 target genes. Six hours after dosing, the last 4 animals from each group were sacrificed, and whole blood and tissues were collected.

blood cell populations = assay: Complete blood count (CBC) with differential after IV dosing; type: in vivo, C57BL/6 mice; conditions: Study 2, single IV dose DMF 30 mg/kg or MMF 27.08 mg/kg
Method: Whole blood samples (250 μL) were collected in EDTA tubes at indicated time points after dosing, and were maintained at 4° C. until analysis for CBC with differential at Charles River Laboratories (analyzed within 24-36 hours from time of collection).
Statistical analyses on blood cell fractions were not completed due to the overall variability and low number of replicates for the samples in this pilot study.
(§3) A CBC with differential panel was performed at 10 minutes post-last dose via facial vein bleeding, and at 2 hours after the last dose, pharmacodynamic Nrf2 transcriptional responses were analyzed in tissues from the same animals. Histopathology was also performed on regions of the tail in a pilot toxicology study.

Osgin1 = assay: qRT-PCR transcript fold-change in tissues after DMF or MMF dosing; type: in vivo, C57BL/6 mice; conditions: MMF IV 30 mpk, Study 2; for Osgin1 fold change vs vehicle, jejunum / Osgin1 fold change vs vehicle, kidney: 30 mg/kg
Method: (§4) For RNA preparation, frozen tissues were placed in 2 mL RNAse-free 96-well blocks with 1.5 mL QIAzol Lysis Reagent (QIAgen) and a 3.2 mm stainless steel bead (BioSpec Products, Bartlesville, Okla.). Tissues were disrupted for four cycles of 45 seconds in a Mini-Beadbeater (Biospec Products). RNA was extracted with chloroform and the aqueous phase was mixed with an equal volume of 70% ethanol. Extracted RNA was applied to RNeasy 96 plates and purified by the spin method according to the manufacturer's protocol (RNeasy 96 Universal Tissue Protocol, QIAgen, Hilden Germany).
(§5) Samples were reverse-transcribed into cDNA according to the manufacturer protocols using the High Capacity cDNA Reverse Transcription Kit (Life Technologies, Carlsbad, Calif.) and analyzed by qRT-PCR. Mouse target gene primers and 6-FAM™ dye-labeled TaqMan® MGB™ probes (Life Technologies) were used. Reactions containing 100 ng of cDNA, 900 nM of each primer, and 250 nM TaqMan probes were cycled on a QuantStudio 12 k-flex system (Life Technologies) once for 10 minutes at 95° C., followed by 40 cycles of 95° C. for 10 seconds and 60° C. for 1 minute. All samples were measured in triplicate with Gapdh as a normalizing gene. Taqman primer/probe sets from Life Technologies included: Akr1b8 (Mm00484314_m1); Gapdh (Mm03302249_g1); Gclc (Mm00802655_m1); Hmox1 (Mm00516005_m1); Nqo1 (Mm01253561_m1); and Osgin1 (Mm00660947_m1). Comparative CT method was used to calculate fold changes and samples were normalized relative to time-matched vehicle control. […]
as §2
(§6) Table 7 is a summary table of fold changes, relative to time-matched vehicle controls, for indicated genes in indicated tissues. Values indicate the mean fold-change±the standard deviation (n=4). Changes that were significant from vehicle are indicated in bold (one way ANOVA with Tukey's multiple comparison test). […]

Nqo1 = assay: as above; type: in vivo, C57BL/6 mice; conditions: MMF IV 30 mpk, Study 2; for Nqo1 fold change vs vehicle, jejunum / Nqo1 fold change vs vehicle, kidney: 30 mg/kg
Method: as §4, §5, §2, §6

Hmox1 = assay: as above; type: in vivo, C57BL/6 mice; conditions: MMF IV 30 mpk, Study 2
Method: as §4
(§7) Samples were reverse-transcribed into cDNA according to the manufacturer protocols using the High Capacity cDNA Reverse Transcription Kit (Life Technologies, Carlsbad, Calif.) and analyzed by qRT-PCR. Mouse target gene primers and 6-FAM™ dye-labeled TaqMan® MGB™ probes (Life Technologies) were used. Reactions containing 100 ng of cDNA, 900 nM of each primer, and 250 nM TaqMan probes were cycled on a QuantStudio 12 k-flex system (Life Technologies) once for 10 minutes at 95° C., followed by 40 cycles of 95° C. for 10 seconds and 60° C. for 1 minute. All samples were measured in triplicate with Gapdh as a normalizing gene. Taqman primer/probe sets from Life Technologies included: Akr1b8 (Mm00484314_m1); Gapdh (Mm03302249_g1); Gclc (Mm00802655_m1); Hmox1 (Mm00516005_m1); Nqo1 (Mm01253561_m1); and Osgin1 (Mm00660947_m1). Comparative CT method was used to calculate fold changes and samples were normalized relative to time-matched vehicle control.
as §1, §2
(§8) Table 7 is a summary table of fold changes, relative to time-matched vehicle controls, for indicated genes in indicated tissues. Values indicate the mean fold-change±the standard deviation (n=4). Changes that were significant from vehicle are indicated in bold (one way ANOVA with Tukey's multiple comparison test).
as §3

Akr1b8 = assay: as above; type: in vivo, C57BL/6 mice; conditions: MMF IV 30 mpk, Study 2
Method: as §4, §7, §1, §2, §8, §3

Gclc = assay: as above; type: in vivo, C57BL/6 mice; conditions: MMF IV 30 mpk, Study 2
Method: as §4, §7, §1, §2, §8, §3

[3] = PET/MR imaging of (^11C)DMF tissue distribution after oral or intravenous administration; type: in vivo, CD1 mice
Method: To determine the localization and retention of DMF administered by different routes in vivo, mice were administered isotopically labeled DMF either orally or through tail vein injections. […] Acquired images from PET experiments were analyzed using inviCRO software. […] All animals were anaesthetized during image acquisition. […] The imaging data from the three groups of treated animals were quantified according to tissue type using inviCRO image analysis software. Regions of Interest (ROIs) for the brain, heart, liver, kidneys, scapular muscle, and whole body were defined by fitting ellipsoids of fixed volume to the regions. The scapular muscle ROI was hand-drawn and is not representative of all mouse muscle, but is composed of only a small region of its respective ROI.

COC(=O)/[14CH]=[14CH]/C(=O)OC [(^14C)DMF, [2,3-^14C] DMF]
(^14C) signal in sagittal section ([1]; IV 0.5 mg/kg): displayed signal in the kidneys and brain | (^14C) signal in sagittal section ([1]; PO 0.5 mg/kg): had less signal in the brain

COC(=O)/C=C/C(=O)O [MMF, monomethyl fumarate]
Kp at 10 min ([2]; C57BL/6, mouse, brain, Study 2, MMF IV 27.08 mg/kg, 10 minutes, read-out: Brain to plasma MMF ratio (tissue [MMF]/plasma [MMF]*100)): 7.2 ± 3 | concentration at 10 min ([2]; C57BL/6, mouse, plasma, Study 2, MMF IV 27.08 mg/kg, 10 minutes, n=4, read-out: MMF level in plasma): 13000 ng/mL and 100 µM | Difference in brain MMF levels, animals receiving MMF compared to DMF via IV dosing ([2]; Study 2, 10 minutes, not significant): 31% | MMF level in plasma or any tissues ([2]; Study 2, 2 hours, DMF 30 mg/kg or MMF 27.08 mg/kg IV): no detectable MMF in plasma or in any tissues | MMF levels in kidney, jejunum and spleen, DMF versus MMF ([2]; Study 2, IV, 10 minutes): no significant differences were noted in MMF levels | Tissue penetration ratios in kidney, jejunum or spleen, DMF versus MMF ([2]; Study 2, IV, 10 minutes): no significant differences in tissue penetration ratios | Reduction in white blood cell counts (neutrophils, lymphocytes, monocytes, eosinophils, basophils) (blood cell populations; 2-hour time point): did not specifically coincide with DMF or MMF treatment | Effect on red blood cells, hemoglobin, hematocrit, mean corpuscular volume, platelets (blood cell populations; 10 minutes, 2 and 6 hours): no effect on red blood cells, hemoglobin, hematocrit, mean corpuscular volume, or platelets | Osgin1 fold change vs vehicle, brain (Osgin1; 2 hr): 1.9 ± 0.3 fold | Osgin1 fold change vs vehicle, jejunum (Osgin1; 2 hr): 1.6±0.1 fold | Osgin1 fold change vs vehicle, kidney (Osgin1; 2 hr): 2.4±0.8 fold | Osgin1 fold change vs vehicle, brain (Osgin1; 6 hr): 1.1 ± 0.1 fold | Osgin1 fold change vs vehicle, jejunum (Osgin1; 6 hr): 1.2±0.1 fold | Osgin1 fold change vs vehicle, kidney (Osgin1; 6 hr): 1.4±0.0 fold | Nqo1 fold change vs vehicle, brain (Nqo1; 2 hr): 1.1 ± 0.1 fold | Nqo1 fold change vs vehicle, jejunum (Nqo1; 2 hr): 1.5±0.2 fold | Nqo1 fold change vs vehicle, kidney (Nqo1; 2 hr): 1.6±0.4 fold | Nqo1 fold change vs vehicle, brain (Nqo1; 6 hr): 1.2 ± 0.1 fold | Nqo1 fold change vs vehicle, jejunum (Nqo1; 6 hr): 1.7±0.1 fold | Nqo1 fold change vs vehicle, kidney (Nqo1; 6 hr): 2.3±0.3 fold | Hmox1 fold change vs vehicle, brain (Hmox1; 2 hr): 1.0 ± 0.1 fold | Hmox1 fold change vs vehicle, jejunum (Hmox1; 2 hr): 0.9 ± 0.1 fold | Hmox1 fold change vs vehicle, kidney (Hmox1; 2 hr): 1.6 ± 0.3 fold | Hmox1 fold change vs vehicle, brain (Hmox1; 6 hr): 1.0 ± 0.0 fold | Hmox1 fold change vs vehicle, jejunum (Hmox1; 6 hr): 1.1 ± 0.1 fold | Hmox1 fold change vs vehicle, kidney (Hmox1; 6 hr): 3.3 ± 0.8 fold | Akr1b8 fold change vs vehicle, brain (Akr1b8; 2 hr): 1.0 ± 0.2 fold | Akr1b8 fold change vs vehicle, kidney (Akr1b8; 2 hr): 1.2 ± 0.1 fold | Akr1b8 fold change vs vehicle, jejunum (Akr1b8; 2 hr, 30 mg/kg): 2.4±0.7 fold | Akr1b8 fold change vs vehicle, brain (Akr1b8; 6 hr): 1.0 ± 0.1 fold | Akr1b8 fold change vs vehicle, jejunum (Akr1b8; 6 hr): 2.9 ± 1.2 fold | Akr1b8 fold change vs vehicle, kidney (Akr1b8; 6 hr, 30 mg/kg): 1.5±0.1 fold | Gclc fold change vs vehicle, brain (Gclc; 2 hr): 1.0 ± 0.0 fold | Gclc fold change vs vehicle, jejunum (Gclc; 2 hr): 1.2 ± 0.3 fold | Gclc fold change vs vehicle, kidney (Gclc; 2 hr, 30 mg/kg): 1.9±0.7 fold | Gclc fold change vs vehicle, brain (Gclc; 6 hr): 1.0 ± 0.1 fold | Gclc fold change vs vehicle, jejunum (Gclc; 6 hr, 30 mg/kg): 1.5±0.1 fold | Gclc fold change vs vehicle, kidney (Gclc; 6 hr, 30 mg/kg): 2.3±0.6 fold

(^11C) dimethyl fumarate [(^11C)DMF]
PET signal distribution in tissues ([3]; IV 0.5 mg/kg, imaged up to 90 minutes, 0.5 mg/kg): positive signal throughout various tissues of the body including the brain and heart; also recorded: signal was higher in most tissues; also recorded: localized in numerous tissues, including the brain, as early as 30 seconds after administration | PET signal in brain regions ([3]; IV 0.5 mg/kg, 0.5 mg/kg): high levels of signal in all regions of the brain throughout the observation period; also recorded: all emitted a strong signal as compared to olfactory regions | PET signal in brain regions ([3]; PO 0.5 mg/kg or 200 mg/kg): almost no signal was detected in any region; also recorded: significantly lower levels of signal throughout the brain
